Experimental data published in paper PMC9920254 (Molecules, 2023).

What was measured:
[1] = target: T1, UGT1A1 (Rattus norvegicus, UniProt Q64550); assay: Chemical inhibition assay of PND metabolism in RLM, UGT1A1 inhibitor; type: in vitro ADME; conditions: liver microsomes, pH 7.4, probe PND (2 µM), overall metabolism of PND, bilirubin 100 μM
T1 construct: rat liver microsomes (RLMs) were prepared with 6 Sprague-Dawley males (6–8 weeks); from tissue; host or cells: liver microsomes of male Sprague-Dawley rats, prepared in house
T1 sequence (Q64550 30-535): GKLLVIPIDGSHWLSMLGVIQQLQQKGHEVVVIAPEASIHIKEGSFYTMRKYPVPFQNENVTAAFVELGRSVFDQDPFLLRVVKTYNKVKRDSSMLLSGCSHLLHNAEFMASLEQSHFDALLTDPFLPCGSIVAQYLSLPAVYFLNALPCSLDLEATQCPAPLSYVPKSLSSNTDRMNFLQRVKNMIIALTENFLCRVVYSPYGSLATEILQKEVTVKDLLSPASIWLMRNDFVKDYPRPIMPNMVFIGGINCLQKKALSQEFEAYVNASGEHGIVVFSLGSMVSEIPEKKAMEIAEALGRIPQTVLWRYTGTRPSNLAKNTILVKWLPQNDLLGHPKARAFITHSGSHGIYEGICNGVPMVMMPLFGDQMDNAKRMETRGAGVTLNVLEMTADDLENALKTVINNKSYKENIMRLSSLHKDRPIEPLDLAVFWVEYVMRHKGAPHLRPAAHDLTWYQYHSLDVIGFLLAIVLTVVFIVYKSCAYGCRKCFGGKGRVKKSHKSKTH

[2] = system: CYP2E1; assay: Chemical inhibition assay of PND metabolism in LMs, CYP2E1 inhibitor; type: in vitro ADME, rat, mouse and human; conditions: disulfiram 50 μM (CYP2E1 inhibitor), PND 2 µM, LMs 0.5 mg protein/mL
[3] = system: CYP3A4; assay: in vitro; conditions: male, Sprague-Dawley (rat), Kunming (mouse), human, liver microsomes, probe PND (2 µM)
[4] = target: T2, UGT1A9 (Homo sapiens, UniProt O60656); assay: Chemical inhibition assay of PND metabolism in HLM, UGT1A9 inhibitor; type: in vitro ADME; conditions: liver microsomes, probe PND (2 µM), overall metabolism of PND, niflumic acid 5 μM
T2 construct: Male Mongolia human microsomes (HLM), prepared from 30 male donors (19–78 years old); tissue RILD Liver Disease Research Co., Ltd. (Shanghai, China); host or cells: pooled human liver microsomes, 30 male donors
T2 sequence (O60656 26-530): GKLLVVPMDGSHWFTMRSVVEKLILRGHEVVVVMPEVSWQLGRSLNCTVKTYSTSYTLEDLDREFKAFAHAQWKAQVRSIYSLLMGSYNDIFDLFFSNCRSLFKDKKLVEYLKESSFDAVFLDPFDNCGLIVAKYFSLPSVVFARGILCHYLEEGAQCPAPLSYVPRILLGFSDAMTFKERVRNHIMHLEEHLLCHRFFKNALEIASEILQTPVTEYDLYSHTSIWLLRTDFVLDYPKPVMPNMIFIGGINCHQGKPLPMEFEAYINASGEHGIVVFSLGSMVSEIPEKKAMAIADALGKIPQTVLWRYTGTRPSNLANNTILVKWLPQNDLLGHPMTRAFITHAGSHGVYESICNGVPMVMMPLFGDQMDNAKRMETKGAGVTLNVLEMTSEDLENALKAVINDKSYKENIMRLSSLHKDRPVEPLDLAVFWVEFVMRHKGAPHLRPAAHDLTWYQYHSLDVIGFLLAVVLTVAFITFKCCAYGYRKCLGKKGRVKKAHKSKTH

[5] = system: CYP2C9 (CYP2C6); assay: in vitro; conditions: male, Sprague-Dawley (rat), Kunming (mouse), human, liver microsomes, probe PND (2 µM)
[6] = target: T3, UGT1A6 (Rattus norvegicus, UniProt P08430); assay: Chemical inhibition assay of PND metabolism in RLM, UGT1A6 inhibitor; type: in vitro ADME; conditions: liver microsomes, pH 7.4, probe PND (2 µM), overall metabolism of PND, troglitazone 250 μM
T3 construct: rat liver microsomes (RLMs) were prepared with 6 Sprague-Dawley males (6–8 weeks); from tissue; host or cells: liver microsomes of male Sprague-Dawley rats, prepared in house
T3 sequence (P08430 26-529): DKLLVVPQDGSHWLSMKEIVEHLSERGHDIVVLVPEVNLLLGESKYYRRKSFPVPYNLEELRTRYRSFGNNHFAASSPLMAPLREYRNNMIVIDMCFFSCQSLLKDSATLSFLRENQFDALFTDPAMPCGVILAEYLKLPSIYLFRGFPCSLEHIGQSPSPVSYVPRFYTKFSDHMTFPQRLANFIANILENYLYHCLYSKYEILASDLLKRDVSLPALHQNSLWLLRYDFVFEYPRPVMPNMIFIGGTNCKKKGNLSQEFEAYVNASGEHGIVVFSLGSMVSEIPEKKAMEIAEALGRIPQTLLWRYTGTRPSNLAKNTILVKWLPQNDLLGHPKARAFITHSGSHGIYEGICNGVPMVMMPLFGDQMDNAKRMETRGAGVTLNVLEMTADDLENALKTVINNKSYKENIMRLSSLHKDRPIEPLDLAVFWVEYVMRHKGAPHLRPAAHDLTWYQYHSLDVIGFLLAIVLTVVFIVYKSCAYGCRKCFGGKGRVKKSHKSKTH

[7] = target: T4, UGT1A6 (Homo sapiens, UniProt P19224); assay: Chemical inhibition assay of PND metabolism in human LMs, UGT1A6 inhibitor; type: in vitro ADME; conditions: liver microsomes, probe PND (2 µM), overall metabolism of PND, troglitazone 250 μM
T4 construct: Male Mongolia human microsomes (HLM), prepared from 30 male donors (19–78 years old); tissue RILD Liver Disease Research Co., Ltd. (Shanghai, China); host or cells: pooled human liver microsomes, 30 male donors
T4 sequence (P19224 27-532): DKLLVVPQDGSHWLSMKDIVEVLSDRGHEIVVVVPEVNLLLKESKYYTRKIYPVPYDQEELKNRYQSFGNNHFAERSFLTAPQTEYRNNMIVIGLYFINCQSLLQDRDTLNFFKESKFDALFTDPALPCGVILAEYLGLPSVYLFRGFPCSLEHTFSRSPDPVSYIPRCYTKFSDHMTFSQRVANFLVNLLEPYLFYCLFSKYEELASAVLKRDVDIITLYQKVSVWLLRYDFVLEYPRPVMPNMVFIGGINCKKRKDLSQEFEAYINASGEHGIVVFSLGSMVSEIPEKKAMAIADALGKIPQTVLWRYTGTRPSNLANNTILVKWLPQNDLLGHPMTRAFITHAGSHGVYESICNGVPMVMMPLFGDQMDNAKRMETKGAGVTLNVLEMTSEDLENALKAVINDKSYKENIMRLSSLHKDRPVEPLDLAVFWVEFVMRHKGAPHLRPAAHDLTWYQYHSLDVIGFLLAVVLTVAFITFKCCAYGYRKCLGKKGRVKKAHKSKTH

[8] = target: T5, UGT1A6 (Mus musculus, UniProt Q64435); assay: Chemical inhibition assay of PND metabolism in MLM, UGT1A6 inhibitor; type: in vitro ADME; conditions: liver microsomes, pH 7.4, probe PND (2 µM), overall metabolism of PND, troglitazone 250 μM
T5 construct: Mouse liver microsomes (MLM) were prepared with 10 Kunming males (6–8 weeks); from tissue; host or cells: liver microsomes of male Kunming mice, prepared in house
T5 sequence (Q64435 27-531): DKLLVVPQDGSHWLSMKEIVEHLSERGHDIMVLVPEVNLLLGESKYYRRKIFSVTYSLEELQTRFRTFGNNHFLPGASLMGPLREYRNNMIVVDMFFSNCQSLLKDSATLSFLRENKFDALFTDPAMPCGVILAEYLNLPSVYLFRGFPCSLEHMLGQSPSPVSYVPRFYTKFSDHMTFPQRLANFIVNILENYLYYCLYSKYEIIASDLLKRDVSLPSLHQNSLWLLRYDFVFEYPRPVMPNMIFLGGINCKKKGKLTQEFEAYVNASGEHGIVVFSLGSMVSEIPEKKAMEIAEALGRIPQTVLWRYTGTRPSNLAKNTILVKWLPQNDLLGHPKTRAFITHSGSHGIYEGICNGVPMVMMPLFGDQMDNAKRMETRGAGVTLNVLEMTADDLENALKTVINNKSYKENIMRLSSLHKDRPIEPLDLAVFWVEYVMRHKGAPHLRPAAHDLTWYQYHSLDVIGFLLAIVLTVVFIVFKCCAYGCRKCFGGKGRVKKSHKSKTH

C=CC1=C(C)/C(=C/c2[nH]c(Cc3[nH]c(/C=C4\NC(=O)C(C)=C4C=C)c(C)c3CCC(=O)O)c(CCC(=O)O)c2C)NC1=O [bilirubin]
inhibition at 90 min, 100 μM [1]: 64.3%

CCN(CC)C(=S)SSC(=S)N(CC)CC [disulfiram]
Effect on metabolism of PND in LMs [2]: decreased significantly

CC(=O)N1CCN(c2ccc(OCC3COC(Cn4ccnc4)(c4ccc(Cl)cc4Cl)O3)cc2)CC1 (centres unmarked) [ketoconazole]
inhibition at 2 µM [3]: 19 to 48%

O=C(O)c1cccnc1Nc1cccc(C(F)(F)F)c1 [niflumic acid]
inhibition at 90 min, 5 μM [4]: 36.7%

Nc1ccc(S(=O)(=O)Nc2ccnn2-c2ccccc2)cc1 [sulphafenazole]
inhibition at 100 µM [5]: 19 to 48%

Cc1c(C)c2c(c(C)c1O)CCC(C)(COc1ccc(CC3SC(=O)NC3=O)cc1)O2 (centres unmarked) [troglitazone]
inhibition at 90 min, 250 μM [6]: 68.6%
inhibition at 90 min, 250 μM [7]: 17.3%
inhibition at 90 min, 250 μM [8]: 61.8%
